Among the data in article PMC6278656, “Synthesis and Biological Evaluation of Phaeosphaeride A Derivatives as Antitumor Agents” (Molecules, 2018) are IC50 values, retold here.

What all share (format): cell-based
Assay [1] concerns human multiple myeloma RPMI8226 cells. The assay can be described thus: MTT cytotoxicity assay, RPMI8226. Particulars: Homo sapiens, RPMI-8226; MTT, 72 h, n = 3, ± SD; read-out: Suspension Cell Cultures, IC50 RPMI8228. The procedure:
(§1) All newly synthesized PPA derivatives 1–8 were evaluated for their anti-proliferative activity against human breast cancer MCF-7, human prostate adenocarcinoma PC-3, human colorectal cancer HCT-116, human lung cancer A549, human chronic myelogenous leukemia K562, human acute monocytic leukemia THP-1, human multiple myeloma RPMI8226, human acute T-cell leukemia Jurkat, human multiple myeloma NCI-H929, and human embryonic fibroblasts HEF cell lines by MTT assays. All cells were incubated with different concentrations of PPA derivatives for 72 h, with etoposide and PPA used as reference compounds. The anticancer activity of the tested compounds was described as the concentration of drug inhibiting 50% cell growth IC50 (Table 1 and Table 2).
(§2) ^1H-NMR spectra were acquired on an AVANCE III 400 MHz NMR spectrometer (Bruker, Rheinstetten, Germany) in CDCl3. Optical rotations were acquired on a Polaar 3005 Polarimeter (Optical Activity, Huntingdon, Great Britain) using a 2.5 cm cell with a Na 589 nm filter and the concentration of samples was denoted as c. Mass spectra data were acquired on a TSQ Quantum Access Max Mass spectrometer (Thermo Fisher Scientific, Waltham, MA, USA). High-resolution mass spectra (HRMS) were acquired on a LTQ Orbitrap Velos spectrometer (Thermo Scientific) and on a Bruker MicrOTOF. FTIR spectra were acquired on an IR Affinity-1 spectrometer (Shimadzu, Thermo Scientific). Organic solvents used were dried by standard methods when necessary. Commercially available reagents were used without further purification. All reactions were monitored by TLC with silica gel coated plates (EMD/Merck KGaA, Darmstadt, Germany), with visualization by UV light and by charring with 0.1% ninhydrin in EtOH. Column chromatography was performed using Merck 60 Å 70–230 mesh silica gel. The optical density was determined using a Multiskan FC spectrophotometer (Thermo Scientific) at a wavelength of 540 nm when using the MTT assay.
(§3) MCF-7 (breast cancer), PC-3 (prostate adenocarcinoma), HCT-116 (colorectal cancer cell), A549 (lung cancer), K562 (chronic myelogenous leukemia), THP-1 (acute monocytic leukemia), and RPMI8226 (multiple myeloma), Jurkat (acute T-cell leukemia), HEF (human embryonic fibroblasts) was purchased from the Russian Academy of Sciences Cells Bank (Institute of Cytology of the Russian Academy of Sciences, Saint Petersburg, Russian Federation). Multiple myeloma cell line NCI-H929 was purchased from ATCC (USA). The MCF-7, A549 and HEF (human embryonic fibroblasts) were cultured in DMEM medium. Other cell lines were cultured in RPMI1640 medium, (PanEco, Russia) supplemented with 10% fetal bovine serum (GE Healthcare LifeSciences, São Paulo, Brazil), and gentamicin at a concentration of 40 μg/mL and cultured at 37 °C in a humidified atmosphere containing 5% CO2. All experiments were performed with cells at passages 3 to 7 in the logarithmic phase of growth.
(§4) Cells were seeded into 96-well plates of 5 × 10^3 for adhesive cultures and 20 × 10^3 for suspension cultures per well in 90 μL and 135 μL of culture medium, respectively. The test substances were dissolved in DMSO to a concentration of 1 × 10^−2 M. For subsequent dilution of the substances, a serum-free culture medium was used as the diluent. Final concentration of DMSO in wells was no more than 1%. […] Substances were added to the cells in 3–4 replicates after 24 h for adhesive cultures and immediately for suspension cultures. 10–15 μL of serum-free medium was added to the control wells with non-exposed cells. Cells were cultured for 72 h at 37 °C in an atmosphere of 5% CO2.
For orientation: Tetrazolium dyes change colour on reduction, which living cells bring about.

Assay [2] relates to human acute T-cell leukemia Jurkat cells. Description: MTT cytotoxicity assay, Jurkat. The conditions noted are these: Homo sapiens, MTT, 72 h, n = 3, ± SD, read-out: Suspension Cell Cultures, IC50 Jurkat. The procedure: as §1, §2, §3, §4
Assay [3] has as its system human acute monocytic leukemia THP-1 cells. Description: MTT cytotoxicity assay, THP-1. Particulars: 72 h, n = 3, ± SD, read-out: Suspension Cell Cultures, IC50 THP-1. On the procedure:
as §1, §2, §3, §4

The test system of assay [4] is human lung cancer A549 cells. The assay can be described thus: MTT cytotoxicity assay, A549. Particulars: 72 h, n = 3, ± SD, read-out: Adhesive Cell Cultures, IC50 A549. The procedure: as §1, §2, §3, §4
Assay [5] relates to human embryonic fibroblasts HEF. Description: MTT cytotoxicity assay, HEF (control cells). Particulars: Fibroblast, 72 h, n = 3, ± SD, read-out: Adhesive Cell Cultures, IC50 HEF. The procedure:
as §1, §2, §3, §4

In assay [6] the test system is human prostate adenocarcinoma PC-3 cells. Description: MTT cytotoxicity assay, PC-3. Particulars: Homo sapiens, MTT, 72 h, n = 3, ± SD, read-out: Adhesive Cell Cultures, IC50 PC-3. The procedure: as §1, §2, §3, §4
Assay [7] deals with human multiple myeloma NCI-H929 cells. Description: MTT cytotoxicity assay, NCI-H929. Particulars: Homo sapiens, MTT, 72 h, n = 3, ± SD, read-out: Suspension Cell Cultures, IC50 NCI-Н929. On the procedure: as §1, §2, §3, §4
The subject of assay [8] is human chronic myelogenous leukemia K562 cells. Description: MTT cytotoxicity assay, K562. The conditions noted are these: Homo sapiens, MTT, 72 h, n = 3, ± SD, read-out: Suspension Cell Cultures, IC50 К562. On the procedure:
as §1, §2, §3, §4

The test system of assay [9] is human breast cancer MCF-7 cells. The assay can be described thus: MTT cytotoxicity assay, MCF-7. Particulars: MCF7, 72 h, n = 3, ± SD, read-out: Adhesive Cell Cultures, IC50 MCF-7. On the procedure:
as §1, §2, §3, §4

For assay [10], the system named is human colorectal cancer HCT-116 cells. The assay can be described thus: MTT cytotoxicity assay, HCT-116. The conditions noted are these: Homo sapiens, MTT, 72 h, n = 3, ± SD, read-out: Adhesive Cell Cultures, IC50 HCT-116. On the procedure: as §1, §2, §3, §4

What is called IC50 is the concentration that gives 50% inhibition.

The structures appear in SMILES notation.

`C=C1C2=C(C(=O)N1OC)[C@@H](NC)[C@@](C)(O)[C@H](CCCCC)O2` [Compound 1, (2S,3R,4R)-3-Hydroxy-6-methoxy-3-methyl-4-(methylamino)-7-methylene-2-pentyl-3,4,6,7-tetrahydro-pyrano[2,3-c]pyrrol-5(2H)-one]: the IC50 was 3.97 ± 0.68 µM in assay [1]; 2.75 ± 0.21 µM in assay [2]; 2.25 ± 0.21 µM in assay [3]; 12.7 ± 0.4 µM in assay [4]; 22.3 ± 0.44 µM in assay [5]; 3.35 ± 0.92 µM in [6]. Further, the IC50 amounted to 1.35 ± 0.69 µM in [7], 3.25 ± 0.64 µM in assay [8], 4.1 ± 0.44 µM in [9] and 3.68 ± 0.81 µM in assay [10].

With `C=C1C2=C(C(=O)N1OC)[C@@H](NCCO)[C@@](C)(O)[C@H](CCCCC)O2` [Compound 2, (2S,3R,4R)-3-Hydroxy-4-[(2-hydroxyethyl)amino]-6-methoxy-3-methyl-7-methylene-2-pentyl-3,4,6,7-tetra-hydropyrano[2,3-c]pyrrol-5(2H)-one], the IC50 in [1] came out at 3.5 ± 0.82 µM; in [2], 2.6 ± 0.99 µM; in assay [3], 2.3 ± 0.57 µM; in assay [4] it was 15.1 ± 0.45 µM; in assay [5], 16.2 ± 0.26 µM; in assay [6], 5.55 ± 1.48 µM. The IC50 in assay [7] came out at 2.05 ± 0.35 µM; in assay [8], 5.5 ± 0.57 µM; in [9] it was 3.23 ± 1.07 µM; in [10], 4.63 ± 0.04 µM.

As to `C=C1C2=C(C(=O)N1OC)[C@@H](NCCCCO)[C@@](C)(O)[C@H](CCCCC)O2` [Compound 3, (2S,3R,4R)-3-Hydroxy-4-[(4-hydroxybutyl)amino]-6-methoxy-3-methyl-7-methylene-2-pentyl-3,4,6,7-tetra-hydropyrano[2,3-c]pyrrol-5(2H)-one], the 50% inhibitory concentration (IC50) in assay [1] was 2.7 ± 0.28 µM; in [2], 3.15 ± 1.77 µM; in [3], 2.6 ± 0.57 µM; in assay [5] it was 15.2 ± 1.02 µM; in assay [6], 4.5 ± 1.56 µM; in [7], 1.95 ± 0.21 µM. Further, the IC50 in [8] worked out at 6.7 ± 0.28 µM; in assay [9], 3.05 ± 1.2 µM; in [10], 2.9 ± 0.98 µM.

For `C=CCN[C@@H]1C2=C(O[C@@H](CCCCC)[C@]1(C)O)C(=C)N(OC)C2=O` [Compound 4, (2S,3R,4R)-4-(Allylamino)-3-hydroxy-6-methoxy-3-methyl-7-methylene-2-pentyl-3,4,6,7-tetrahydropyrano-[2,3-c]pyrrol-5(2H)-one], the IC50 is 6 ± 0.13 µM in assay [1]; 3.27 ± 0.07 µM in assay [2]; 3.32 ± 0.1 µM in assay [3]; 12.7 ± 0.27 µM in assay [4]; 5.03 ± 0.15 µM in [5]; 6.37 ± 0.18 µM in [6]. Also, the 50% inhibitory concentration (IC50) in assay [7] was found to be 2.35 ± 0.09 µM; in assay [8], 10.5 ± 0.41 µM; in [9], 4.13 ± 0.23 µM; in [10], 8.4 ± 0.24 µM.

In the case of `C=C1C2=C(C(=O)N1OC)[C@@H](NCc1ccccc1)[C@@](C)(O)[C@H](CCCCC)O2` [Compound 5, (2S,3R,4R)-4-(benzylamino)-3-hydroxy-6-methoxy-3-methyl-7-methylene-2-pentyl-3,4,6,7-tetrahydro-pyrano[2,3-c]pyrrol-5(2H)-one], the IC50 is 16 ± 0.16 µM in assay [1]; 10.1 ± 0.44 µM in [2]; 15.1 ± 0.36 µM in assay [3]; 37.5 ± 1.33 µM in assay [4]; 53.1 ± 1.06 µM in [5]; 24.7 ± 1.24 µM in assay [6]. In addition, the results for the half-maximal inhibitory concentration (IC50) in [8], in assay [9] and in assay [10] were 14.1 ± 0.48 µM, 35.7 ± 0.65 µM and 12.9 ± 0.3 µM, respectively.

In the case of `C=C1C2=C(C(=O)N1OC)[C@@H](N1CCC(N3CCCC3)CC1)[C@@](C)(O)[C@H](CCCCC)O2` [Compound 7, (2S,3R,4R)-3-Hydroxy-6-methoxy-3-methyl-7-methylene-2-pentyl-4-(4-pyrrolidin-1-ylpiperidin-1-yl)-3,4,6,7-tetrahydropyrano[2,3-c]pyrrol-5(2H)-one], the concentration for half-maximal inhibition (IC50) was found to be 3.35 ± 1.48 µM in assay [1]; 2.73 ± 1.53 µM in assay [2]; 3.45 ± 0.21 µM in [3]; 12.2 ± 0.2 µM in assay [4]; 22.3 ± 0.33 µM in assay [5]; 3.65 ± 0.64 µM in assay [6]. The concentration for half-maximal inhibition (IC50) in [7] is 2 ± 0.26 µM; in [8], 6.03 ± 0.91 µM; in [9], 1.8 ± 0.44 µM; in assay [10], 1.65 ± 0.63 µM.

Turning to `C=C1C2=C(C(=O)N1OC)[C@@H](N1CCC(O)CC1)[C@@](C)(O)[C@H](CCCCC)O2` [Compound 8, (2S,3R,4R)-3-Hydroxy-4-(4-hydroxypiperidin-1-yl)-6-methoxy-3-methyl-7-methylene-2-pentyl-3,4,6,7-tetra-hydropyrano[2,3-c]pyrrol-5(2H)-one], the half-inhibitory concentration (IC50) is 1.4 ± 0.28 µM in assay [1]; 2.6 ± 1.13 µM in [2]; 2.1 ± 0.28 µM in [3]; 9.4 ± 0.14 µM in [4]; 6.7 ± 0.23 µM in assay [5]; 4.53 ± 0.4 µM in assay [6]. The IC50 in assay [7] came to 1.87 ± 0.25 µM; in assay [8], 4.9 ± 2.4 µM; in assay [9] it was 3.2 ± 0.52 µM; in assay [10], 2.64 ± 0.05 µM.

As for `C=C1C2=C(C(=O)N1OC)[C@H](O)[C@@](C)(O)[C@H](CCCCC)O2` [PPA, phaeosphaeride A], the IC50 in assay [1] came to 9.15 ± 0.64 µM; in assay [2], 9.7 ± 0.42 µM; in [3], 19.1 ± 0.45 µM; in assay [4] it was 41.1 ± 2.6 µM; in assay [5] it was 19.1 ± 0.25 µM; in [6], 32.1 ± 0.77 µM. Further, the 50% inhibitory concentration (IC50) was 6.5 ± 0.3 µM in [7], 20.5 ± 1.46 µM in [8], 20.3 ± 0.8 µM in [9] and 24.2 ± 0.75 µM in [10].
